Bridge positions count the residues as written; N and C are the ends. Square brackets hold non-standard residues; d marks the D form. Ends that are not written are not given here. Peptide text beside a SMILES is read from it. * marks the point of attachment. 5FAM = O=C1OC2(c3ccc(O)cc3Oc3cc(O)ccc32)c2ccc(C(=O)*)cc21; Biotin = O=C1N[C@H]2[C@H](CS[C@H]2CCCCC(=O)*)N1; Hyp = O=C(O)[C@@H]1C[C@@H](O)CN1; Nle = CCCC[C@H](N)C(=O)O; Aib = CC(C)(N)C(=O)O

Assay [1] concerns LRP1 cluster 4-Fc chimeric proteins. Kind of assay: Competitive binding assay by ELISA against Sequence 46. Particulars: peptide 2,000 nM versus Sequence 46 (500 nM); time point not stated. As to the method: For comparison between the peptide of Sequence 1 with amino acid substitutions and the peptide of Sequence 2 in terms of the LRP1 binding activity and the resistance to protease degradation, a competitive binding assay by ELISA shown in FIG. 2 was constructed. Immediately (zero hour) or 24 hours after the mixing of the peptide of Sequence 2 or the amino acid-substituted peptide with mouse plasma at 37°C, the mixture was diluted to sufficiently lower the plasma concentration to any desired final concentration, and mixed with Sequence 46 (500 nM). This mixture was subjected to the competitive binding assay described above. The binding of Sequence 46 to the LRP1 cluster 4-Fc chimera proteins competes with the binding of Sequence 2 or the amino acid-substituted peptide to the LRP1 cluster 4-Fc chimera proteins, and thus is inhibited depending on the concentration of Sequence 2 or the amino acid-substituted peptide. That is, the binding activity of Sequence 2 or the amino acid-substituted peptide to the LRP1 cluster 4-Fc chimera proteins is detected as competitive inhibitory activity against the binding of Sequence 46. Regarding the binding value of Sequence 46 to the wells in which the LRP1 cluster 4-Fc chimeric proteins were not captured as 100% inhibitory activity and the binding value of Sequence 46 to the wells in which Sequence 2 or the amino acid-substituted peptide was not added as 0% inhibitory activity, the inhibitory activity values of Sequence 2 and the amino acid-substituted peptide were calculated in %.
Sequence 2 incubated with plasma for zero hour inhibited the binding of Sequence 46 in a concentration-dependent manner. […] However, the binding of Sequence 46 (500 nM) in wells loaded with 2,000 nM equivalent Sequence 2 averaged 50.6%.
Immediately or 24 hours after Sequences 1 to 44 were mixed with mouse plasma at 37°C, the mixtures were diluted to sufficiently lower the plasma concentration to a final concentration of 2,000 nM, and mixed with Sequence 46 (500 nM). The obtained mixtures were subjected to the above-described competitive binding assay. […] Other sequences tended to have diminished inhibitory activities.

Assay [2] has as its system LRP1 cluster 2-Fc chimeric proteins. Kind of assay: ELISA binding test of biotin-labeled peptides. Particulars: biotinylated peptide 1,000 nM to 1.4 nM. Here is the method: (§1) To evaluate the binding activity of the peptides to LRP1, an ELISA-based binding assay was constructed. The ELISA method will be briefly described below. First, a goat antihuman IgG-Fcγ polyclonal antibody (Catalog No. 109-0005-008, manufactured by Jackson Immuno Research) was added to a 96-well Maxisorp plate (Catalog No. 439454, manufactured by Nunc) at 1 µg/50 µL/well using D-PBS, followed by coating overnight at 4°C. Then, 0.5% BSA/D-PBS was further added at 300 µL/well, and blocking was carried out at room temperature for 30 minutes. After washing the plate with 0.1% Tween 20/D-PBS, LRP1 recombinant proteins, namely, LRP1 cluster 2-Fc chimeric proteins (Catalog No. 2368-L2-050, manufactured by R & D Systems), LRP1 cluster 3-Fc chimeric proteins (Catalog No. 48248-L3-050, manufactured by R & D Systems), or LRP1 cluster 4-Fc chimeric proteins (Catalog No. 5395-L4-050, manufactured by R & D Systems), were added at 100 ng/50 µL/well using 0.5% BSA/D-PBS, and allowed to react with the coated antibodies at room temperature for 30 minutes. After washing the plate with 0.1% Tween 20/PBS, Sequences 45 and 46, which were biotinylated peptides, were prepared at an arbitrary concentration using 0.5% BSA/D-PBS, and added at 50µL/well. After causing a reaction at room temperature for 30 minutes, the plate was washed with 0.1% Tween 20/D-PBS. Sequences 45 and 46 bound to the LRP1 recombinant proteins captured on the plate were detected with SA-HRP (Catalog No. ab7403, manufactured by Abeam). For quantification of HRP, TMB ELISA Substrate Solution (Catalog No. 34028, manufactured by Thermo Fisher) was used to measure absorbance at 450 nm.

Assay [3] deals with LRP1 cluster 4-Fc chimeric proteins. Kind of assay: ELISA binding test of biotin-labeled peptides. Here is the method: as §1
In assay [4] the test system is LRP1 cluster 3-Fc chimeric proteins. The experiment in a line: ELISA binding test of biotin-labeled peptides. Particulars: biotinylated peptide 1,000 nM to 1.4 nM. As to the method: as §1
Assay [5] deals with LRP1 cluster 4-Fc chimeric proteins (UniProt Q07954). Kind of assay: competitive ELISA, LRP1 cluster 4-Fc captured; peptide 2,000 nM against biotin-Sequence 46 500 nM.
Assay [6] has the same target. The experiment in a line: ELISA, LRP1 cluster 4-Fc captured, biotin peptide detected with SA-HRP.

Sequence of UniProt Q07954 (Q07954 3293-3783, stated change not applied): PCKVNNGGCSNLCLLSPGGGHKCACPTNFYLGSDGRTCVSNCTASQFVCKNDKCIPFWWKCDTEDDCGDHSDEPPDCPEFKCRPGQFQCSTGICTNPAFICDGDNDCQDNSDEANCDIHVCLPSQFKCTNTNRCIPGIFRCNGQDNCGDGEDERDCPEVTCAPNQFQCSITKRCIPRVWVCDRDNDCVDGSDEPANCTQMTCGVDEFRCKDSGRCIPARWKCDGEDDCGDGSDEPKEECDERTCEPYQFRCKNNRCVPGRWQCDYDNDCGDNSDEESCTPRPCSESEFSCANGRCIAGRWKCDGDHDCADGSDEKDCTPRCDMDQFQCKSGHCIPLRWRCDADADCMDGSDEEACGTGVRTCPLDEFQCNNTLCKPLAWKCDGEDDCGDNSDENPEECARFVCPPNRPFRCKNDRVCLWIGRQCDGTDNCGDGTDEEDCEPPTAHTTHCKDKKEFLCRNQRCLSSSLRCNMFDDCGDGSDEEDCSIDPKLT

The molecule `CCCC[C@@H]1NC(=O)[C@H](Cc2ccc(O)cc2)NC(=O)[C@H](CCCCN)NC(=O)[C@H](Cc2ccc(O)cc2)NC(=O)[C@H]([C@@H](C)O)NC(=O)[C@@H](NC(=O)[C@@H]2CCCN2C(=O)[C@@H](NC(=O)CNC(=O)[C@H](CCCCNC(=O)c2ccc3c(c2)C(=O)OC32c3ccc(O)cc3Oc3cc(O)ccc32)NC(C)=O)[C@@H](C)O)CSSC[C@@H](C(=O)O)NC(=O)[C@@H]2CCCN2C(=O)[C@H](CCCC)NC(=O)[C@H](CCC(=O)O)NC(=O)[C@H](C)NC(=O)[C@H](CC(C)C)NC1=O` [Sequence 43, Ac-Lys(5FAM)-Gly-Thr-Pro-c(Cys-Thr-Tyr-Lys-Tyr-Nle-Leu-Ala-Glu-Nle-Pro-Cys)-OH] (Ac-K(5FAM)GTPCTYKY[Nle]LAE[Nle]PC-OH; disulfide 5-16) returned an inhibitory activity in assay [1] of 83.5%.

In assay [1], `CCCC[C@@H]1NC(=O)[C@H](CCC(=O)O)NC(=O)C(C)(C)NC(=O)[C@H](CC(C)C)NC(=O)[C@H](CCCC)NC(=O)[C@H](Cc2ccc(O)cc2)NC(=O)[C@H](CCCCN)NC(=O)[C@H](Cc2ccc(O)cc2)NC(=O)[C@H]([C@@H](C)O)NC(=O)[C@@H](NC(=O)[C@@H]2CCCN2C(=O)[C@@H](NC(=O)CNC(=O)[C@H](CCCCNC(=O)c2ccc3c(c2)C(=O)OC32c3ccc(O)cc3Oc3cc(O)ccc32)NC(C)=O)[C@@H](C)O)CSSC[C@@H](C(=O)O)NC1=O` [Sequence 34, Ac-Lys(5FAM)-Gly-Thr-Pro-c(Cys-Thr-Tyr-Lys-Tyr-Nle-Leu-Aib-Glu-Nle-Cys)-OH] (Ac-K(5FAM)GTPCTYKY[Nle]L[Aib]E[Nle]C-OH; disulfide 5-15) gave an inhibitory activity of 82.0%.

“Ac-Lys(5FAM)-Gly-Thr-Pro-Cys-Thr-Tyr-Lys-Tyr-Nle-Leu-Ala-Glu-Nle-^DCys-OH (Ac-K(5FAM)GTPCTYKY[Nle]LAE[Nle][dC]-OH; cysteine pairing not given here) [Sequence 9]” showed an inhibitory activity in assay [1] of 85.8%.

Regarding “Ac-K(Biotin)GTPCTYKY[Nle]LAE[Nle]C-OH (cysteine pairing not given here) [Sequence 45]”, the “binding to the LRP1 cluster 2-Fc chimeric proteins” value in assay [2] is “little or no binding”. In addition, the “binding to the LRP1 cluster 4-Fc chimeric proteins” value in assay [3] (biotinylated peptide 1,000 nM to 1.4 nM) is “selectively and in a peptide concentration-dependent manner”. In assay [3] (biotinylated peptide, SA-HRP detection, absorbance at 450 nm, n = 4), the EC50 is 10.5 nM. Further, the “binding to the LRP1 cluster 3-Fc chimeric proteins” value in assay [4] was “little or no binding”.

In the case of “Ac-Lys(5FAM)-Gly-Thr-Pro-c(^DCys-Thr-Tyr-Lys-Tyr-Nle-Leu-Ala-Glu-Nle-Cys)-OH (KGTPCTYKYXLAEXC; N-acetyl, Lys(5FAM), cyclic, D-residue, Nle residues; CROSSLNK 5..15: note = methylene thioactal (-S-CH2-S-); SITE 5: note = D-Cys; SITE 10: note = Nle; SITE 14: note = Nle; MOD_RES 1: note = N-acetyllysine labeled with 5-FAM) [Sequence 7]”, in assay [1], the inhibitory activity is listed as 87.6%.

For the molecule “Ac-Lys(5FAM)-Gly-Thr-Pro-Cys-Thr-Tyr-Lys-Tyr-Nle-Leu-Ala-Glu-Nle-Cys)-OH (Ac-K(5FAM)GTPCTYKY[Nle]LAE[Nle]C-OH; not fully specified (bridges); printed as Ac-Lys(5FAM)-Gly-Thr-Pro-Cys-Thr-Tyr-Lys-Tyr-Nle-Leu-Ala-Glu-Nle-Cys)-OH; also: cyclic, bridge type not given here) [Sequence 1]”, in assay [1], the inhibitory activity is on record as 70.7%.

As to `CCCC[C@@H]1NC(=O)[C@H](CCC(=O)O)NC(=O)[C@H](C)NC(=O)[C@H](CC(C)C)NC(=O)[C@H](CCCC)NC(=O)[C@H](Cc2ccc(O)cc2)NC(=O)[C@H](CCCNC(=N)N)NC(=O)[C@H](Cc2ccc(O)cc2)NC(=O)[C@H]([C@@H](C)O)NC(=O)[C@@H](NC(=O)[C@@H]2CCCN2C(=O)[C@@H](NC(=O)CNC(=O)[C@H](CCCCNC(=O)c2ccc3c(c2)C(=O)OC32c3ccc(O)cc3Oc3cc(O)ccc32)NC(C)=O)[C@@H](C)O)CSSC[C@@H](C(=O)O)NC1=O` [Sequence 24, Ac-Lys(5FAM)-Gly-Thr-Pro-c(Cys-Thr-Tyr-Arg-Tyr-Nle-Leu-Ala-Glu-Nle-Cys)-OH] (Ac-K(5FAM)GTPCTYRY[Nle]LAE[Nle]C-OH; disulfide 5-15), the inhibitory activity in assay [1] is recorded as 77.4%.

In assay [1], `CCCC[C@@H]1NC(=O)[C@H](CCC(=O)O)NC(=O)[C@H](C)NC(=O)[C@H](CC(C)C)NC(=O)[C@H](CCCC)NC(=O)[C@H](Cc2ccc(O)cc2)NC(=O)[C@H](CCCCN)NC(=O)[C@H](Cc2ccc(O)cc2)NC(=O)[C@H]([C@@H](C)O)NC(=O)[C@H](NC(=O)[C@@H]2CCCN2C(=O)[C@@H](NC(=O)CNC(=O)[C@H](CCCCNC(=O)c2ccc3c(c2)C(=O)OC32c3ccc(O)cc3Oc3cc(O)ccc32)NC(C)=O)[C@@H](C)O)CSSC[C@@H](C(=O)O)NC1=O` [Sequence 6, Ac-Lys(5FAM)-Gly-Thr-Pro-c(^DCys-Thr-Tyr-Lys-Tyr-Nle-Leu-Ala-Glu-Nle-Cys)-OH] (Ac-K(5FAM)GTP[dC]TYKY[Nle]LAE[Nle]C-OH; disulfide 5-15) gave an inhibitory activity of 91.9%.

In turn, Ac-K(5FAM)GTPCTYKY[Nle]LAE[Nle]C (cysteine pairing not given here) [SEQUENCE 1] gave an inhibitory activity (%) in assay [5] of 70.7%.

With Ac-K(5FAM)GTP[dC]TYKY[Nle]LAE[Nle]C (disulfide 5-15) [SEQUENCE 6], the inhibitory activity (%) in assay [5] was determined as 91.9%.

In the case of Ac-K(Biotin)GTPCTYKY[Nle]LAE[Nle]C (disulfide 5-15) [SEQUENCE 46], the half-maximal effective concentration (EC50) in assay [6] amounted to 11 nM.

The molecule Ac-K(5FAM)GTPCTYKY[Nle]L[Aib]E[Nle]C (disulfide 5-15) [SEQUENCE 34] registered an inhibitory activity (%) in assay [5] of 82%.

In turn, Ac-K(5FAM)GTPCTYKY[Nle]LAE[Nle]PC (disulfide 5-16) [SEQUENCE 43] displayed an inhibitory activity (%) in assay [5] of 83.5%.

Turning to Ac-K(5FAM)GTPCTYKY[Nle]LAE[Nle][dC] (cysteine pairing not given here) [SEQUENCE 9], the inhibitory activity (%) in assay [5] amounted to 85.8%.

The molecule Ac-K(Biotin)GTPCTYKY[Nle]LAE[Nle]C (cysteine pairing not given here) [SEQUENCE 45] showed an EC50 in assay [6] of 10.5 nM.

For the molecule Ac-K(5FAM)GTPC[Hyp]YKY[Nle]LAE[Nle]C (disulfide 5-15) [SEQUENCE 19], the inhibitory activity (%) in assay [5] was 79.1%.

Turning to Ac-K(5FAM)GTP[dC]TYKY[Nle]LAE[Nle]C (bridge 5-15 via S‑C‑S (methylene)) [SEQUENCE 7], in assay [5], the inhibitory activity (%) was determined as 87.6%.

In the case of Ac-K(5FAM)GTPCTYRY[Nle]LAE[Nle]C (disulfide 5-15) [SEQUENCE 24], in assay [5], the inhibitory activity (%) is 77.4%.
